Measurements published in the supplement of paper PMC10307832.

Compound: C1CC(C2=C(C1)C3=C(N2)C=CC(=C3)Cl)C(=O)N [Selisistat] + Cc1nc(Nc2ncc(C(=O)Nc3c(C)cccc3Cl)s2)cc(N2CCN(CCO)CC2)n1 [Dasatinib] (partner 0.075 µM)
Assay: relative viability (nuclei count vs DMSO), 5 days (fraction); higher = more cells survive
Conditions: first compound 0.4 µM
Procedure, shortened: (§1)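 For relative viability, nuclei counts in treated wells were divided by those in vehicle wells. Lung cancer cell lines had been pin-tool dosed in 1536-well plates the day after seeding and cultured for 5 days, then fixed and stained in one step (final 0.05% Triton X-100, 1% formaldehyde, 1 ug/ml Hoechst) and imaged at 4×. Doses were one drug alone or a fixed anchor-drug dose plus five library-drug doses (not always all listed) in √10 steps, and values are duplicate-plate medians.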

How did the relative viability turn out when CAL-12T was run?
The relative viability was 0.451.

NCI-H1651 was tested. Which relative viability did it give?
Its relative viability is 0.434.

How did the relative viability turn out when EPLC-272H was run?
Its relative viability is 0.352.

For NCI-H2228, which relative viability is on record?
Its relative viability is 0.68.

NCI-H1355 was tested. Which relative viability did it give?
The relative viability was 0.684.

With NCI-H3122 as the cell line, how does the relative viability read?
Its relative viability is 0.999.

NCI-H1437 was tested. Which relative viability did it give?
Its relative viability is 0.399.

Which relative viability does the source give for NCI-H1755 here?
Its relative viability is 0.474.

With NCI-H2023 as the cell line, how does the relative viability read?
The relative viability was 0.495.

How did the relative viability turn out when HCC-15 was run?
The relative viability was 0.716.

How did the relative viability turn out when NCI-H1793 was run?
The relative viability was 0.359.

How did the relative viability turn out when PC-14 was run?
The relative viability was 0.259.

How did the relative viability turn out when EKVX was run?
Its relative viability is 0.575.

With LC-2-ad as the cell line, how does the relative viability read?
Its relative viability is 0.611.

NCI-H1944 was tested. Which relative viability did it give?
Its relative viability is 0.24.

Which relative viability does the source give for NCI-H1975 here?
Its relative viability is 0.346.

RERF-LC-KJ was tested. Which relative viability did it give?
Its relative viability is 1.04.

ABC-1 was tested. Which relative viability did it give?
Its relative viability is 0.553.

For NCI-H358, which relative viability is on record?
Its relative viability is 0.201.

Which relative viability does the source give for NCI-H650 here?
Its relative viability is 0.427.

How did the relative viability turn out when PC-3 [JPC-3] was run?
Its relative viability is 0.998.

Same assay, conditions: first compound 1.265 µM

With LXF-289 as the cell line, how does the relative viability read?
Its relative viability is 0.239.

With NCI-H23 as the cell line, how does the relative viability read?
The relative viability was 0.95.

NCI-H647 was tested. Which relative viability did it give?
The relative viability was 0.186.

With CAL-12T as the cell line, how does the relative viability read?
Its relative viability is 0.478.

With NCI-H1651 as the cell line, how does the relative viability read?
The relative viability was 0.378.

Which relative viability does the source give for EPLC-272H here?
Its relative viability is 0.33.

NCI-H2228 was tested. Which relative viability did it give?
Its relative viability is 0.577.

With NCI-H1355 as the cell line, how does the relative viability read?
The relative viability was 0.688.

How did the relative viability turn out when NCI-H3122 was run?
The relative viability was 0.736.

How did the relative viability turn out when NCI-H1437 was run?
Its relative viability is 0.349.

NCI-H1755 was tested. Which relative viability did it give?
Its relative viability is 0.476.

With NCI-H2023 as the cell line, how does the relative viability read?
The relative viability was 0.497.

With HCC-15 as the cell line, how does the relative viability read?
Its relative viability is 0.625.

Which relative viability does the source give for NCI-H1793 here?
Its relative viability is 0.394.

For PC-14, which relative viability is on record?
The relative viability was 0.302.

For EKVX, which relative viability is on record?
The relative viability was 0.509.

Which relative viability does the source give for NCI-H1944 here?
Its relative viability is 0.205.

With NCI-H1975 as the cell line, how does the relative viability read?
The relative viability was 0.383.

RERF-LC-KJ was tested. Which relative viability did it give?
Its relative viability is 0.813.

For ABC-1, which relative viability is on record?
Its relative viability is 0.469.

Which relative viability does the source give for NCI-H358 here?
The relative viability was 0.158.

Which relative viability does the source give for NCI-H650 here?
Its relative viability is 0.469.

For PC-3 [JPC-3], which relative viability is on record?
Its relative viability is 0.976.

Same assay, conditions: first compound 4 µM

How did the relative viability turn out when LXF-289 was run?
Its relative viability is 0.305.

For NCI-H23, which relative viability is on record?
The relative viability was 0.571.

Which relative viability does the source give for NCI-H647 here?
The relative viability was 0.176.

How did the relative viability turn out when CAL-12T was run?
The relative viability was 0.316.

With NCI-H1651 as the cell line, how does the relative viability read?
Its relative viability is 0.359.

With NCI-H2228 as the cell line, how does the relative viability read?
Its relative viability is 0.449.

With NCI-H1355 as the cell line, how does the relative viability read?
Its relative viability is 0.519.

For NCI-H3122, which relative viability is on record?
The relative viability was 0.639.

With NCI-H1755 as the cell line, how does the relative viability read?
The relative viability was 0.418.

How did the relative viability turn out when NCI-H2023 was run?
Its relative viability is 0.524.

For PC-14, which relative viability is on record?
Its relative viability is 0.279.

How did the relative viability turn out when LC-2-ad was run?
Its relative viability is 0.456.

NCI-H1975 was tested. Which relative viability did it give?
The relative viability was 0.195.

Which relative viability does the source give for RERF-LC-KJ here?
Its relative viability is 0.818.

Which relative viability does the source give for ABC-1 here?
Its relative viability is 0.589.

How did the relative viability turn out when NCI-H358 was run?
Its relative viability is 0.114.

NCI-H650 was tested. Which relative viability did it give?
Its relative viability is 0.52.

PC-3 [JPC-3] was tested. Which relative viability did it give?
The relative viability was 0.884.

Same assay, conditions: first compound 12.65 µM

For LXF-289, which relative viability is on record?
Its relative viability is 0.245.

With NCI-H23 as the cell line, how does the relative viability read?
Its relative viability is 0.8.

How did the relative viability turn out when NCI-H647 was run?
The relative viability was 0.154.

For CAL-12T, which relative viability is on record?
Its relative viability is 0.281.

For NCI-H1651, which relative viability is on record?
The relative viability was 0.348.

How did the relative viability turn out when EPLC-272H was run?
Its relative viability is 0.369.

With NCI-H2228 as the cell line, how does the relative viability read?
The relative viability was 0.536.

NCI-H1355 was tested. Which relative viability did it give?
The relative viability was 0.65.

How did the relative viability turn out when NCI-H3122 was run?
The relative viability was 0.842.

Which relative viability does the source give for NCI-H1437 here?
The relative viability was 0.331.

For NCI-H1755, which relative viability is on record?
The relative viability was 0.419.

For NCI-H2023, which relative viability is on record?
The relative viability was 0.539.

HCC-15 was tested. Which relative viability did it give?
The relative viability was 0.594.

Which relative viability does the source give for NCI-H1793 here?
Its relative viability is 0.426.

For PC-14, which relative viability is on record?
Its relative viability is 0.289.

Which relative viability does the source give for EKVX here?
The relative viability was 0.409.

Which relative viability does the source give for LC-2-ad here?
Its relative viability is 0.459.

For NCI-H1944, which relative viability is on record?
The relative viability was 0.22.

Which relative viability does the source give for NCI-H1975 here?
Its relative viability is 0.314.

Which relative viability does the source give for RERF-LC-KJ here?
Its relative viability is 0.625.

For ABC-1, which relative viability is on record?
The relative viability was 0.588.

Which relative viability does the source give for NCI-H358 here?
The relative viability was 0.235.

How did the relative viability turn out when NCI-H650 was run?
The relative viability was 0.382.

Which relative viability does the source give for PC-3 [JPC-3] here?
Its relative viability is 0.975.

Same assay, conditions: first compound 40 µM

Which relative viability does the source give for LXF-289 here?
The relative viability was 0.303.

Which relative viability does the source give for NCI-H23 here?
Its relative viability is 0.772.

NCI-H647 was tested. Which relative viability did it give?
The relative viability was 0.218.

How did the relative viability turn out when CAL-12T was run?
The relative viability was 0.372.

With NCI-H1651 as the cell line, how does the relative viability read?
The relative viability was 0.34.

With EPLC-272H as the cell line, how does the relative viability read?
The relative viability was 0.381.

For NCI-H2228, which relative viability is on record?
The relative viability was 0.557.

NCI-H1355 was tested. Which relative viability did it give?
Its relative viability is 0.789.

NCI-H3122 was tested. Which relative viability did it give?
Its relative viability is 0.791.

Which relative viability does the source give for NCI-H1437 here?
The relative viability was 0.514.

With NCI-H1755 as the cell line, how does the relative viability read?
The relative viability was 0.414.

Which relative viability does the source give for NCI-H2023 here?
The relative viability was 0.512.

For HCC-15, which relative viability is on record?
Its relative viability is 0.613.

NCI-H1793 was tested. Which relative viability did it give?
The relative viability was 0.344.

How did the relative viability turn out when PC-14 was run?
Its relative viability is 0.3.

Which relative viability does the source give for EKVX here?
Its relative viability is 0.392.

LC-2-ad was tested. Which relative viability did it give?
Its relative viability is 0.569.

How did the relative viability turn out when NCI-H1944 was run?
The relative viability was 0.2.

Which relative viability does the source give for NCI-H1975 here?
Its relative viability is 0.345.

With RERF-LC-KJ as the cell line, how does the relative viability read?
The relative viability was 0.568.

Which relative viability does the source give for ABC-1 here?
Its relative viability is 0.509.

Which relative viability does the source give for NCI-H358 here?
Its relative viability is 0.226.

For NCI-H650, which relative viability is on record?
Its relative viability is 0.493.

How did the relative viability turn out when PC-3 [JPC-3] was run?
The relative viability was 0.976.

Compound: c1ccc2c(CCNc3ccc(Nc4ccncc4)cc3)c[nH]c2c1 [Serdemetan] + Cc1cc(Nc2cc(N3CCN(C)CC3)nc(Sc3ccc(NC(=O)C4CC4)cc3)n2)n[nH]1 [Tozasertib] (partner 0.1 µM)
Assay: as above
Conditions: first compound 0.04 µM
Procedure, shortened: as §1

How did the relative viability turn out when LXF-289 was run?
The relative viability was 0.213.

Which relative viability does the source give for NCI-H23 here?
The relative viability was 0.436.

With NCI-H647 as the cell line, how does the relative viability read?
Its relative viability is 0.355.
